Results taken from patent US11873298B2, “Compounds and uses thereof” (JANSSEN PHARMACEUTICA NV, priority 2017, dated 2024).

How the values were obtained:
Ole1 = biological target: T1, Ole1 (Saccharomyces cerevisiae, UniProt P21147); assay: Growth inhibition of yeast strain expressing Ole1 as sole desaturase; assay type: cell-based; conditions: yeast strain expressing Ole1 as sole desaturase
T1 construct: expressed in transfected cells; host or cells: S. cerevisiae ole1Δ strain (W303 pdr1Δ pdr3Δ background), plasmid pRS316 with TDH3 promoter and CYC1 terminator
T1 sequence (P21147 1-510): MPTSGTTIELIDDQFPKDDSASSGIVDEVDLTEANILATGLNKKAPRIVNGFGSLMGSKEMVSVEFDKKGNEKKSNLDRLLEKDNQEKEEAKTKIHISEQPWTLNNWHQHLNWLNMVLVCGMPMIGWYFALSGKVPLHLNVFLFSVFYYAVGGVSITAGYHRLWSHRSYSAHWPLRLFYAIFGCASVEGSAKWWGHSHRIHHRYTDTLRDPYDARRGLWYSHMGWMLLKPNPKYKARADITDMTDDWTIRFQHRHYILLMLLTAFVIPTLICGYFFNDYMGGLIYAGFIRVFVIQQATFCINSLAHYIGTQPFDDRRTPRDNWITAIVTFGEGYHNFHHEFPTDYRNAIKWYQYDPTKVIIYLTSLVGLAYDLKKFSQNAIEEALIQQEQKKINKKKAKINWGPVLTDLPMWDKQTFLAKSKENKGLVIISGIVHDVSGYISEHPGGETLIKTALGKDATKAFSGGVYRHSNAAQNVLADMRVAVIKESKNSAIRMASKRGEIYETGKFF
Method in brief: (§1)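 Yeast ole1Δ strain (W303 pdr1Δ pdr3Δ background) carrying plasmid-borne Ole1, SCD1 or SCD5 as sole desaturase was grown in uracil-lacking media, pre-cultured in raffinose for 6 h, then seeded in galactose medium with compound in DMSO. Growth was read as OD600 after 30° C. incubation: 24 h for Ole1, 40 h for SCD1/SCD5.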

SCD1 = biological target: T2, SCD1 (Homo sapiens, UniProt O00767); assay: Growth inhibition of humanized yeast strain expressing SCD1 as sole desaturase; assay type: cell-based; conditions: humanized yeast strain expressing SCD1
T2 construct: host or cells: S. cerevisiae ole1Δ strain (W303 pdr1Δ pdr3Δ background), plasmid pRS316 with TDH3 promoter and CYC1 terminator
T2 sequence (O00767 1-359): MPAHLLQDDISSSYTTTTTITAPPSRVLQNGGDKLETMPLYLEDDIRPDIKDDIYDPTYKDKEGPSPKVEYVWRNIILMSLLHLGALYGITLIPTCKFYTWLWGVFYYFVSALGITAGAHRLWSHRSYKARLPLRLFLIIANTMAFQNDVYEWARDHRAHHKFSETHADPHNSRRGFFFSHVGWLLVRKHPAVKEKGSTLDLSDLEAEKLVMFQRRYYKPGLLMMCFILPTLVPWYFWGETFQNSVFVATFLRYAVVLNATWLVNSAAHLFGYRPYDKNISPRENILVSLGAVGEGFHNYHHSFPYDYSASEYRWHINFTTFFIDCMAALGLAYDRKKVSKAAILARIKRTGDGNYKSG
Method in brief: as §1

SCD5 = biological target: T3, SCD5 (Homo sapiens, UniProt Q86SK9); assay: Growth inhibition of humanized yeast strain expressing SCD5 as sole desaturase; assay type: cell-based; conditions: humanized yeast strain expressing SCD5
T3 construct: host or cells: S. cerevisiae ole1Δ strain (W303 pdr1Δ pdr3Δ background), plasmid pRS316 with TDH3 promoter and CYC1 terminator
T3 sequence (Q86SK9 1-330): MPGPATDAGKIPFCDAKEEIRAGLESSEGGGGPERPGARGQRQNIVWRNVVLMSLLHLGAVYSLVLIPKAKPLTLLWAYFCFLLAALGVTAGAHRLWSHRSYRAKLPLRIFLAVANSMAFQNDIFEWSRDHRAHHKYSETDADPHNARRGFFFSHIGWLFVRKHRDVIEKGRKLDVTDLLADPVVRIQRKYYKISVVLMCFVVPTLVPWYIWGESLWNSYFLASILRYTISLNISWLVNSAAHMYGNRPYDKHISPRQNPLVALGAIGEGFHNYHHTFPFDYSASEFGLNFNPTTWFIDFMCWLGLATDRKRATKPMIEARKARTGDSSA
Method in brief: as §1

[1] = system: yeast strains expressing the human α-synuclein; assay: Yeast α-synuclein toxicity rescue assay (OD600 growth); conditions: 40 h; for EC50: read-out: α-Syn EC50; for Emax: read-out: α-Syn Emax
Source text: The induced expression of α-synuclein and ApoE4 confers cytotoxicity, thus enabling the identification of compounds that can restore cell viability. This instantaneous/synchronous induction of α-synuclein and ApoE4 can be achieved due to the following expression control. In glucose-containing media, gene expression from the GAL1 promoter is ‘off’ and actively repressed by additional epigenetic factors. In raffinose, expression is ‘off’, but the promoter not actively repressed. Upon transition to galactose-containing media, the promoter is instantaneously turned ‘on’ to achieve robust and synchronous induction of α-synuclein or ApoE4 expression. This highly regulated induction provides a robust window for the determination of both efficacy (amplitude of protective effect) and potency (concentration of protective effect) of cytoprotective compounds.
Re-suspended compound stocks were subsequently arrayed into 384 well compound plates using automated pipetting. All other wells not receiving stock compound were filled with 10 μL of 100% DMSO using an automated plate filler (Multidrop Combi). An 11 point, 2-fold serial dilution was then performed using the robotic platform. Compound assay plates were covered with foil and stored at −20° C. until use.
Each strain was handled according to standard protocols and cultured in media composed of CSM (complete synthetic media), YNB (yeast nitrogenous base), and a 2% (w/v) carbon source (either glucose, raffinose, or galactose).
In a standard yeast assay, a single-use aliquot of cells was thawed on ice and diluted into CSM/glucose (5 mL). Cultures were grown for 8 hours at 30° C. This pre-growth enables the yeast to exit the thaw and begin to grow without expressing aSyn or ApoE4. After 8 hours, cell density (OD600) was determined and cultures diluted to an OD600 of 0.01 in CSM/raffinose for an overnight culture phase at 30° C. During this period, the active glucose repression of the GAL1 promoter was relieved; however, expression of the α-Syn/ApoE4 genes were not yet induced. After ˜16 hours of growth, cultures attain an OD600 of 0.4-0.8 and were ready to apply to assay plates containing compound.
Compound profiling assays were executed in clear-bottom 384 well plates. First, compound plates were thawed at room temperature for 45′, centrifuged at 1,000×g for 1 minute, and the foil removed. Clear 384 well assay plates were then filled with 15 μL of CSM/galactose. […] The pin tool was washed iteratively with both 50% DMSO and 100% ethanol between each assay plate. After delivering compound to each assay plate, the overnight CSM/raffinose aSyn or ApoE4 cultures were added at a 2X cell density (0.04 for aSyn and 0.08 for ApoE4) in CSM/galactose to achieve a final assay OD600 of 0.02 and 0.04 for aSyn and ApoE, respectively. The cultures (15 μL per well) were then dispensed to the compound -containing 384 well assay plates using an automated plate filler. Plates were incubated in a humidified 30° C. incubator for 40 or 24 hours for aSyn and ApoE4, respectively. The ODsoo of each assay plate was then read with a microplate reader (e.g., Perkin Elmer Envision).
The efficacy and potency of compounds were calculated according to the following. Raw data (OD600 values) were first background corrected to account for OD600 contributed by the plate and media itself. The efficacy (percent above DMSO, herein referred to as “Emax”) was calculated according to the equation: (Experimental well−DMSO control well)/(DMSO control well)*100. […] Normalized dose-response data was fit with a logistic regression curve using Spotfire (TIBCO), or similar curve-fitting software package. EC50 values were then reported along with EMax to provide both efficacy and potency measures for each analog and enable further compound design.

| SMILES | IC50 (Ole1) | OLE1 % Max Inhibition (Ole1) | IC50 (SCD1) | SCD1 % Max Inhibition (SCD1) | IC50 (SCD5) | SCD5 % Max Inhibition (SCD5) | EC50 [1] | Emax [1] |
| --- | --- | --- | --- | --- | --- | --- | --- | --- |
| CCOc1ccc(-c2noc(C3CCN(C(=O)[C@H]4CN(c5ccccc5)C(=O)O4)CC3)n2)cc1OC [Compound 148] | > 45 µM | 99.90% | > 45 µM | 79.55% | > 45 µM | 86.53% | 13.7 µM | 258% |
| Cc1nn(C)c2cc(-c3noc(C4CCN(C(=O)[C@@H]5CN(c6ccccc6)C(=O)O5)CC4)n3)ccc12 [Compound 149] | > 45 µM | 90.68% | > 45 µM | 69.75% | > 45 µM | 38.72% | 0.06 µM | 458% |
| COc1ccnc(C(=O)NCC(=O)N2CCC(c3nc(-c4ccc5c(C)nn(C)c5c4)no3)CC2)c1 [Compound 150] | > 45 µM | 5.16% | > 45 µM | 74.48% | > 45 µM | 86.15% | 0.099 µM | 473% |
| COc1ccc(C(=O)NCC(=O)N2CCC(c3nc(-c4ccc5c(C)nn(C)c5c4)no3)CC2)nc1 [Compound 151] | > 45 µM | 2.67% | > 45 µM | 75.63% | > 45 µM | 20.68% | 0.045 µM | 405% |
| COc1ccccc1C(=O)NCC(=O)N1CCC(c2nc(-c3ccc4c(C)nn(C)c4c3)no2)CC1 [Compound 152] | > 45 µM | 2.37% | > 45 µM | 83.39% | > 45 µM | 60.91% | 0.134 µM | 474% |
| Cc1nn(C)c2cc(-c3noc(C4CCN(C(=O)CNC(=O)c5ccccn5)CC4)n3)ccc12 [Compound 153] | > 45 µM | 2.75% | > 45 µM | 75.76% | > 45 µM | 87.51% | 0.02 µM | 271% |
| COc1cccc(C(=O)NCC(=O)N2CCC(c3nc(-c4ccc5c(C)nn(C)c5c4)no3)CC2)n1 [Compound 154] | > 45 µM | 1.20% | > 45 µM | 68.90% | > 45 µM | 3.25% | 0.057 µM | 410% |
| Cc1ccc(-c2noc(C3CCN(C(=O)C4CC(=O)N(c5ccc(C)c(C)c5)C4)CC3)n2)cc1 (stereo not shown) [compound 2] | > 45 µM |  | > 45 µM |  | > 45 µM |  | 8.57 µM | 80% |
| COc1ccccc1-c1noc(C2CCN(C(=O)CNC(=O)c3ccccc3)CC2)n1 [compound 12] | > 45 µM |  | > 45 µM |  | > 45 µM |  | 16.2 µM | 43% |
| Cc1ccc(-c2nc(C3CCN(C(=O)[C@@H]4CC(=O)N(c5ccc(C)c(C)c5)C4)CC3)no2)cc1 [compound 72] | > 45 µM |  | 27.3 µM |  | 33 µM |  | 12.7 µM | 35% |
| O=C(NCC(=O)N1CCC(c2nc(-c3ccccn3)no2)CC1)c1ccccc1 [compound 78] | 38.3 µM |  | > 45 µM |  | > 45 µM |  | 14.6 µM | 38% |
| O=C(NCC(=O)N1CCC(c2nc(-c3ccc4cn[nH]c4c3)no2)CC1)c1ccccc1 [compound 88] | > 45 µM |  | 33.5 µM |  | > 45 µM |  | 9.04 µM | 130% |
| Cc1nn(C)c2cc(-c3noc(C4CCN(C(=O)C5CC(=O)N(c6ccccc6)C5)CC4)n3)ccc12 (stereo not shown) [compound 89] | > 45 µM |  | > 45 µM |  | > 45 µM |  | 0.165 µM | 580% |
| Cc1nn(C)c2cc(-c3noc(C4CCN(C(=O)[C@H]5CC(=O)N(c6ccccc6)C5)CC4)n3)ccc12 [compound 90] | > 45 µM |  | > 45 µM |  | > 45 µM |  | 1.65 µM | 281% |
